Where two headings read alike, the source gives them in different places.

Experimental findings from US20240083886A1, “HETEROCYCLIC GLP-1 AGONISTS” (Gasherbrum Bio, Inc., priority 2020, published 2024) are described below.

This assay has as its target GLP-1 Receptor (Homo sapiens, UniProt P43220). Kind of assay: GLP-1R agonist cAMP stimulation assay. The class given is cell-based. In a few lines: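 HEK293/CRE-Luc cells stably expressing GLP-1R, 1000 cells/well in DPBS with 0.5 mM IBMX and 0.1% BSA, exposed to ½-log compound dilutions 30 min at 37 °C. cAMP measured by HTRF (665/615 nm) after 1 h at room temperature. % activity normalised between vehicle and MAX controls.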

[1] abbreviates: HEK293/GLP1R/CRE-LUC cells, cAMP dynamic 2 Kit (Cisbio), 30 min incubation at 37° C., read-out: EC50.

GLP-1 Receptor, sequence (P43220 24-463, species assumed): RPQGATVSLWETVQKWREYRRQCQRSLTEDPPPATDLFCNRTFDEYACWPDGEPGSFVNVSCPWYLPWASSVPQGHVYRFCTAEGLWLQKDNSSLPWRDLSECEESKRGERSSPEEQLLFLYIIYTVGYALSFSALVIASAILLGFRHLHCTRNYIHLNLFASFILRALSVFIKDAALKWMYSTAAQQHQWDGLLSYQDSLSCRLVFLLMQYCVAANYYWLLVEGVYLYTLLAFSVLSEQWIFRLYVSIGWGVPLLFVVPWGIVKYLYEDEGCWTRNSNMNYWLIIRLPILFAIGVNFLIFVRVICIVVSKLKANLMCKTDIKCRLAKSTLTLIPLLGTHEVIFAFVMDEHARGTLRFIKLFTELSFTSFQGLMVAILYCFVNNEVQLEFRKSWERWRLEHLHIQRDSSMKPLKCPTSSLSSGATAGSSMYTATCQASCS

Compound `Fc1cc(Cl)ccc1Cc1ncc(F)c(OC2CCN(Cc3nc4cc(-c5nnc[nH]5)ncc4n3C[C@@H]3CCO3)CC2)n1` [Compound 169a, 2-[(4-chloro-2-fluorophenyl)methyl]-5-fluoro-4-({1-[(3-{[(2S)-oxetan-2-yl]methyl}-6-(4H-1,2,4-triazol-3-yl)-3H-imidazo[4,5-c]pyridin-2-yl)methyl]piperidin-4-yl}oxy)pyrimidine] registered an EC50 of 1500 pM.

With `Fc1cc2c(cc1-c1nnc(C(F)(F)F)[nH]1)nc(CN1CCC(Oc3ccnc(Cc4ccc(Cl)cc4)n3)CC1)n2C[C@@H]1CCO1` [Compound 122a, 2-{[4-({2-[(4-chlorophenyl)methyl]pyrimidin-4-yl}oxy)piperidin-1-yl]methyl}-6-fluoro-1-{[(2S)-oxetan-2-yl]methyl}-5-[5-(trifluoromethyl)-4H-1,2,4-triazol-3-yl]-1H-1,3-benzodiazole], under setting [1], the EC50 was found to be 540 pM.

With `Cc1nnc(-c2cc3nc(CN4CCC(Oc5nc(Cc6ccc(Cl)cc6)ncc5F)CC4)n(C[C@@H]4CCO4)c3cn2)[nH]1` [Compound 163a, 2-[(4-chlorophenyl)methyl]-5-fluoro-4-[(1-{[6-(5-methyl-4H-1,2,4-triazol-3-yl)-3-{[(2S)-oxetan-2-yl]methyl}-3H-imidazo[4,5-c]pyridin-2-yl]methyl}piperidin-4-yl)oxy]pyrimidine], the half-maximal effective concentration (EC50) was 250 pM.

Consider `O=C(Nc1ccc2c(c1)nc(CN1CCC(Oc3ccnc(Cc4ccc(Cl)cc4F)n3)CC1)n2C[C@@H]1CCO1)c1cccnc1` [Compound 111a, N-(2-{[4-({2-[(4-chloro-2-fluorophenyl)methyl]pyrimidin-4-yl}oxy)piperidin-1-yl]methyl}-1-{[(2S)-oxetan-2-yl]methyl}-1H-1,3-benzodiazol-5-yl)pyridine-3-carboxamide], for which, under setting [1], the EC50 amounted to 89 pM.

Regarding `Fc1cnc(Cc2ccc(Cl)cc2)nc1O[C@H]1CC[C@H](Cc2nc3cc(-c4nnc(C(F)(F)F)[nH]4)ccc3n2C[C@@H]2CCO2)CC1` [Compound 173a, 1-{[(2S)-oxetan-2-yl]methyl}-2-{[(1r,4r)-4-({2-[(4-chlorophenyl)methyl]-5-fluoropyrimidin-4-yl}oxy)cyclohexyl]methyl}-5-[5-(trifluoromethyl)-4H-1,2,4-triazol-3-yl]-1H-1,3-benzodiazole], the EC50 under setting [1] was 810 pM.

Turning to `Fc1cc(Cl)ccc1Cc1cccc(OC2CCN(Cc3nc4cc(-c5nnc(C(F)(F)F)[nH]5)ncc4n3C3CCOCC3)CC2)n1` [Compound 191, 2-[(4-chloro-2-fluorophenyl)methyl]-6-[(1-{[3-(oxan-4-yl)-6-[5-(trifluoromethyl)-4H-1,2,4-triazol-3-yl]-3H-imidazo[4,5-c]pyridin-2-yl]methyl}piperidin-4-yl)oxy]pyridine], the EC50 under setting [1] was determined as 41000 pM.

Take `Cc1ccc(C(=O)Nc2ccc3c(c2)nc(CN2CCC(Oc4ccnc(Cc5ccc(Cl)cc5)n4)CC2)n3C[C@@H]2CCO2)cn1` [Compound 104a, N-(2-{[4-({2-[(4-chlorophenyl)methyl]pyrimidin-4-yl}oxy)piperidin-1-yl]methyl}-1-{[(2S)-oxetan-2-yl]methyl}-1H-1,3-benzodiazol-5-yl)-6-methylpyridine-3-carboxamide]: the concentration for a half-maximal effect (EC50) under setting [1] was 1100 pM.

`Fc1cnc(Cc2ccc(Cl)cc2)nc1OC1CCN(Cc2nc3cc(-c4nnc(C(F)(F)F)[nH]4)ccc3n2C[C@H]2CCOC2)CC1` [Compound 147a, 2-{[4-({2-[(4-chlorophenyl)methyl]-5-fluoropyrimidin-4-yl}oxy)piperidin-1-yl]methyl}-1-{[(3R)-oxolan-3-yl]methyl}-5-[5-(trifluoromethyl)-4H-1,2,4-triazol-3-yl]-1H-1,3-benzodiazole]: the EC50 under setting [1] came out at 11000 pM.

Consider `N#CC1(Cn2c(CN3CCC(Oc4ccnc(Cc5ccc(Cl)cc5)n4)CC3)nc3cc(-c4nnc(C(F)(F)F)[nH]4)ccc32)CC1` [Compound 157, 1-[(2-{[4-({2-[(4-chlorophenyl)methyl]pyrimidin-4-yl}oxy)piperidin-1-yl]methyl}-5-[5-(trifluoromethyl)-4H-1,2,4-triazol-3-yl]-1H-1,3-benzodiazol-1-yl)methyl]cyclopropane-1-carbonitrile], for which the EC50 under setting [1] came to 1100 pM.

As for `Cc1ccc(-c2ccc3c(c2)nc(CN2CCC(Oc4ccnc(Cc5ccc(Cl)cc5)n4)CC2)n3C[C@@H]2CCO2)nn1` [Compound 124a, 2-{[4-({2-[(4-chlorophenyl)methyl]pyrimidin-4-yl}oxy)piperidin-1-yl]methyl}-5-(6-methylpyridazin-3-yl)-1-{[(2S)-oxetan-2-yl]methyl}-1H-1,3-benzodiazole], a half-maximal response (EC50) required 590 pM.

As to `O=c1[nH]c(-c2ccc3c(c2)nc(C[C@H]2CC[C@H](Oc4nc(Cc5ccc(Cl)cc5)ncc4F)CC2)n3C[C@@H]2CCO2)no1` [Compound 172a, 3-(1-{[(2S)-oxetan-2-yl]methyl}-2-{[(1r,4r)-4-({2-[(4-chlorophenyl)methyl]-5-fluoropyrimidin-4-yl}oxy)cyclohexyl]methyl}-1H-1,3-benzodiazol-5-yl)-4,5-dihydro-1,2,4-oxadiazol-5-one], the EC50 under setting [1] came to 1800 pM.

Consider `Fc1cc(Cl)ccc1Cc1cccc(OC2CCN(Cc3nc4cc(-c5nnc(C(F)(F)F)[nH]5)cnc4n3C[C@@H]3CCO3)CC2)n1` [Compound 141a, 2-[(4-chloro-2-fluorophenyl)methyl]-6-({1-[(3-{[(2S)-oxetan-2-yl]methyl}-6-[5-(trifluoromethyl)-4H-1,2,4-triazol-3-yl]-3H-imidazo[4,5-b]pyridin-2-yl)methyl]piperidin-4-yl}oxy)pyridine], for which the EC50 under setting [1] came to 130 pM.

In the case of `Clc1ccc(Cc2nccc(OC3CCN(Cc4nc5cc(-c6nnn[nH]6)ccc5n4Cc4cn[nH]c4)CC3)n2)cc1` [Compound 153, 2-{[4-({2-[(4-chlorophenyl)methyl]pyrimidin-4-yl}oxy)piperidin-1-yl]methyl}-1-[(1H-pyrazol-4-yl)methyl]-5-(1H-1,2,3,4-tetrazol-5-yl)-1H-1,3-benzodiazole], the half-maximal effective concentration (EC50) under setting [1] turned out to be 180 pM.

Turning to `COc1cncc(-c2cc3nc(CN4CCC(Oc5cccc(Cc6ccc(Cl)cc6F)n5)CC4)n(C[C@@H]4CCO4)c3cn2)n1` [Compound 187a, 2-(2-{[4-({6-[(4-chloro-2-fluorophenyl)methyl]pyridin-2-yl}oxy)piperidin-1-yl]methyl}-3-{[(2S)-oxetan-2-yl]methyl}-3H-imidazo[4,5-c]pyridin-6-yl)-6-methoxypyrazine], the half-maximal effective concentration (EC50) under setting [1] was greater than 300000 pM.

Consider `O=c1[nH]c(-c2cc3nc(CN4CCC(Oc5nc(Cc6ccc(Cl)cc6F)ncc5F)CC4)n(C[C@@H]4CCO4)c3cn2)no1` [Compound 171a, 3-(2-{[4-({2-[(4-chloro-2-fluorophenyl)methyl]-5-fluoropyrimidin-4-yl}oxy)piperidin-1-yl]methyl}-3-{[(2S)-oxetan-2-yl]methyl}-3H-imidazo[4,5-c]pyridin-6-yl)-4,5-dihydro-1,2,4-oxadiazol-5-one], for which the EC50 under setting [1] amounted to 170 pM.

In turn, `FC(F)(F)c1nnc(-c2cnc3c(c2)nc(CN2CCC(Oc4cccc(Cc5ccc(Cl)cc5)n4)CC2)n3C[C@@H]2CCO2)[nH]1` [Compound 143a, 2-[(4-chlorophenyl)methyl]-6-({1-[(3-{[(2S)-oxetan-2-yl]methyl}-6-[5-(trifluoromethyl)-4H-1,2,4-triazol-3-yl]-3H-imidazo[4,5-b]pyridin-2-yl)methyl]piperidin-4-yl}oxy)pyridine] registered an EC50 of 220 pM.

`COCc1nnc(-c2cc3nc(CN4CCC(Oc5cccc(Cc6ccc(Cl)cc6F)n5)CC4)n(C[C@@H]4CCO4)c3cn2)[nH]1` [Compound 183a, 2-[(4-chloro-2-fluorophenyl)methyl]-6-{[1-({6-[5-(methoxymethyl)-4H-1,2,4-triazol-3-yl]-3-{[(2S)-oxetan-2-yl]methyl}-3H-imidazo[4,5-c]pyridin-2-yl}methyl)piperidin-4-yl]oxy}pyridine] yielded an EC50 of 3300 pM.

What is called EC50 is the concentration needed to bring the measured effect to its halfway point.
